Where “and” joins values, the source holds several entries; their conditions need not be identical. Identical values can stand only once. Entries after “also recorded” stand apart in the source; their conditions may differ. Blank lines part the entries; values can stand above or below the compound they belong to.
Columns and labels:
Type in all cases: cell-based
rat TRPV1 (rTRPV1) [1] = molecular target: T1, rat TRPV1 (rTRPV1) (Rattus norvegicus, UniProt O35433); assay: live-cell calcium imaging of HEK293T cells transiently expressing rat TRPV1; settings: for compound-evoked calcium response normalized to the capsaicin (2 μM)-evoked response: compound 300 μM (0.3 mM), fura-2-loaded HEK293T transiently expressing rTRPV1, only capsaicin positive cells analyzed
T1 construct: expressed in transfected cells; host or cells: HEK293T (transient)
Method: (3A) Top: Captured pseudocolor images of fura-2-loaded HEK293T cells transiently expressing rTRPV1, before (“Basal”) and after the application of synthesized tricyclic spirolactones (300 μM; ‘Comp.’), followed by the subsequent application of capsaicin (2 μM; “Cap”). Scale bar indicates level of intracellular calcium. Bottom: Box and whiskers plot showing the indicated compound (300 μM)-evoked calcium response of HEK293T cells expressing rTRPV1, normalized to the capsaicin (2 μM)-evoked response. Boxes represent the mean of 3-4 independent experiments (each n≥50 cells); only capsaicin-positive cells were analyzed. Statistical significance between the different compounds' normalized responses is indicated as follows: *p≤0.05; ***p≤0.001; ns, no statistical significance (ANOVA followed by multiple comparison test). (3B) Top: Captured pseudocolor images of fura-2-loaded HEK293T cells transiently expressing the wt rTRPV1 (“rV1”; top), chicken TRPV1 (“cV1”; middle), or the VBS mutated receptor rTRPV1-Y511G (“YG”; bottom), before (“Basal”) and after the application of compound 13 (300 μM; “13”), which was followed by the subsequent application of 2-APB (300 μM; “2APB”). Scale bar indicates level of intracellular calcium. Bottom: changes with time of intracellular calcium levels in fura-2-loaded HEK293T expressing rat TRPV1 (“rTRPV1”; red line), rat TRPV1-Y511G (“rTRPV1(YG)”; purple line), and chicken TRPV1 (“cTRPV1”; orange line) in response to compound 13 (300 μM; “13”; light gray bar), which was followed by the subsequent application of 2-APB (300 μM; “2APB”; gray bar). Each trace represents an average of 75-130 cells sensitive to 2-APB. […] (3C) Top: Captured pseudocolor images of fura-2-loaded HEK293T cells transiently expressing rTRPV1, before (“Basal”) and after the application of saturated tricyclic spirolactones (300 μM; “Comp.”), which was followed by the subsequent application of capsaicin (2 μM; “Cap”). Scale bar indicates the level of intracellular calcium. […] Boxes represent the mean of 3-4 independent experiments (each n≥50 cells); only capsaicin positive cells were analyzed. Statistical significance between the different compounds' normalized responses is indicated as follows: **p≤0.01; ***p≤0.001; ns, no statistical significance (ANOVA followed by multiple comparison test).
(§1) To examine whether the compact tricyclic spirolactones activate TRPV1, we scanned a library of synthesized compounds illustrated in FIG. 2C. […] To test this possibility, we recoded the response of rTRPV1 transiently expressed in HEK293T cells in the whole-cell or inside-out patch clamp configurations.

chicken TRPV1 = assay: live-cell calcium imaging of HEK293T cells transiently expressing chicken TRPV1; settings: compound 300 μM; followed by 2-APB 300 μM
Method: (§2) (3A) Top: Captured pseudocolor images of fura-2-loaded HEK293T cells transiently expressing rTRPV1, before (“Basal”) and after the application of synthesized tricyclic spirolactones (300 μM; ‘Comp.’), followed by the subsequent application of capsaicin (2 μM; “Cap”). Scale bar indicates level of intracellular calcium. Bottom: Box and whiskers plot showing the indicated compound (300 μM)-evoked calcium response of HEK293T cells expressing rTRPV1, normalized to the capsaicin (2 μM)-evoked response. Boxes represent the mean of 3-4 independent experiments (each n≥50 cells); only capsaicin-positive cells were analyzed. Statistical significance between the different compounds' normalized responses is indicated as follows: *p≤0.05; ***p≤0.001; ns, no statistical significance (ANOVA followed by multiple comparison test). (3B) Top: Captured pseudocolor images of fura-2-loaded HEK293T cells transiently expressing the wt rTRPV1 (“rV1”; top), chicken TRPV1 (“cV1”; middle), or the VBS mutated receptor rTRPV1-Y511G (“YG”; bottom), before (“Basal”) and after the application of compound 13 (300 μM; “13”), which was followed by the subsequent application of 2-APB (300 μM; “2APB”). Scale bar indicates level of intracellular calcium. […] Boxes represent the mean of 3-4 independent experiments (each n≥50 cells); only capsaicin positive cells were analyzed. […]

rTRPV1(Y511G) = molecular target: T2, rTRPV1(Y511G) (Rattus norvegicus, UniProt O35433, Y511G); assay: live-cell calcium imaging of HEK293T cells transiently expressing VBS-mutated rat TRPV1; settings: compound 300 μM; followed by 2-APB 300 μM
T2 construct: expressed in transfected cells; host or cells: HEK293T (transient)
Method: as §2

[2] = tested on: acutely dissociated trigeminal ganglia neurons; assay: neuronal response of acutely dissociated trigeminal ganglia neurons; settings: compared with capsaicin sensitivity
Method: To examine whether the compact tricyclic spirolactones activate TRPV1, we scanned a library of synthesized compounds illustrated in FIG. 2C. […] Although our compounds are less hydrophobic than other VBS-binding molecules (e.g., capsaicin), most synthesized compounds could not be prepared in physiological salt solutions (i.e., Ringer) at concentrations greater than 1 mM without adding cytotoxic levels of DMSO. […] To confirm that the observed calcium increase is a direct result of TRPV1 activation through the VBS, we used chicken TRPV1, which is insensitive to vanilloids28, and VBS-mutated rat TRPV1 (rTRPV1(Y511G)). […] The functionality and expression of these channels were verified by their sensitivity to 2-aminoethoxydiphenyl borate (2-APB), a non-VBS TRPV1 activator. We next investigated the selectivity of compound 13 to TRPV1 by examining the neuronal response of acutely dissociated trigeminal ganglia neurons. […] A possible explanation to the observed lower response of 13 in comparison to capsaicin might be the accessibility of the compound to the intracellular VBS. To test this possibility, we recoded the response of rTRPV1 transiently expressed in HEK293T cells in the whole-cell or inside-out patch clamp configurations.

rTRPV1 [3] = molecular target: T3, rTRPV1 (Rattus norvegicus, UniProt O35433); assay: calcium imaging of rTRPV1 stably expressed in HEK293 cells (concentration-response, capsazepine block); settings: for EC50 / Hill coefficient n: normalized concentration-response, fit to the Hill equation, rTRPV1 stably expressed in HEK293 cells
T3 construct: expressed in transfected cells
Description: (§3) Each point represents the average (±SEM) response of 50 cells. […] Scale bar indicates level of intracellular calcium.
To further analyze the role of the aromatic anchor in TRPV1 activation by spirolactones, we compared the affinity of 13 to its vanilloid derivative 32.

rTRPV1 [4] = molecular target: T3, rTRPV1; assay: patch clamp of rTRPV1 transiently expressed in HEK293T cells; settings: voltage ramps between −80 and +80 mV; compound 32 1 mM, capsaicin 2 μM
Description: as §3, §1
TRPV1 is a non-selective cationic ion channel with a typical current profile. To examine whether our novel structure architecture activates the channel similarly as other VBS -associated agonists, we analyzed the current profile using the whole-cell configuration of the patch clamp technique. Using voltage ramps between −80 and +80 mV, we analyzed the channel response to 32 and capsaicin.

rat TRPV1 (rTRPV1) [5] = molecular target: T1, rat TRPV1 (rTRPV1); assay: live-cell calcium imaging of HEK293T cells transiently expressing rat TRPV1; settings: compound 18 at 0.3 mM or 1 mM applied before compound 13 (1 mM)

T3 sequence (O35433 whole entry): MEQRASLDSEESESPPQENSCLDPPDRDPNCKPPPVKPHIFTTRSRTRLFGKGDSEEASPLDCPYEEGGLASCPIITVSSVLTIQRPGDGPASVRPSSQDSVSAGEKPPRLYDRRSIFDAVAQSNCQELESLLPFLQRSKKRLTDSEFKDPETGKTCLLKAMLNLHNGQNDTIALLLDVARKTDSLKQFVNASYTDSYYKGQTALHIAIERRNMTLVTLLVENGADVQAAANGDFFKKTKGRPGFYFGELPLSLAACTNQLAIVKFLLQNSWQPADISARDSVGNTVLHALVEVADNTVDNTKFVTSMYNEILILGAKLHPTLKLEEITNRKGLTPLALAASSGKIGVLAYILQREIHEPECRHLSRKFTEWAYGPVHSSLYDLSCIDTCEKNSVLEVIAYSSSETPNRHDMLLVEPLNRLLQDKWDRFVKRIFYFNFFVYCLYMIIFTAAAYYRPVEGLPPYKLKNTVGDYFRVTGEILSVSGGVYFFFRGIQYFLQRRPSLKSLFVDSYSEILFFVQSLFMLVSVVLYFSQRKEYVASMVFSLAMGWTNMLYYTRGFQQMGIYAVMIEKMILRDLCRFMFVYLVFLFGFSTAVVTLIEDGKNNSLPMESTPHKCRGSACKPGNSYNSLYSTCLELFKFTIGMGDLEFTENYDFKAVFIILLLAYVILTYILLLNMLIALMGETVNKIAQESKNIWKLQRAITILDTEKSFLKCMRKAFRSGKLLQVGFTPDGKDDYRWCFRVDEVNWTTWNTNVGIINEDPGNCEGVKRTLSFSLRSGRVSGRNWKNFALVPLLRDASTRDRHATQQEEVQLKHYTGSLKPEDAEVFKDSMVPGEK
T1 sequence (O35433 whole entry): as above
T2 sequence (O35433 whole entry Y511G): as the sequence (O35433 whole entry) above, with Y511G counted along it

compound-evoked calcium response normalized to the capsaicin (2 μM)-evoked response (rat TRPV1 (rTRPV1) [1]): unexpectedly robust response
activation of VBS-mutated rTRPV1-Y511G (intracellular calcium) (rTRPV1(Y511G)): did not activate
EC50 (rTRPV1 [3]): 127 ± 8.9 µM
Hill coefficient n (rTRPV1 [3]): 2.7 and 2.7±0.5
Compound: O=C1C[C@@H]2CC[C@@H]3CC=CC[C@]32O1 [Compound 13]
activation of chicken TRPV1 (intracellular calcium) (chicken TRPV1): did not activate
selectivity to TRPV1: neuronal response [2]: activated only capsaicin sensitive neurons

compound-evoked calcium response normalized to the capsaicin (2 μM)-evoked response (rat TRPV1 (rTRPV1) [1]): active compounds
Compound: C=C1C[C@H]2CCC[C@H]3CC(=O)O[C@@]23C1 [Compound 10]

EC50 (rTRPV1 [3]): 12.8 ± 1.6 µM
Hill coefficient n (rTRPV1 [3]): 1.4 and 1.4±0.2
Compound: COc1cc(C[C@H]2C(=O)O[C@@]34CC=CC[C@H]3CC[C@@H]24)ccc1O [Compound 32]
compound-evoked calcium response normalized to the capsaicin (2 μM)-evoked response (rat TRPV1 (rTRPV1) [1]): strongest response; also recorded: capsaicin-like activity
current-voltage profile, whole-cell patch clamp (rTRPV1 [4]): robust, outwardly rectifying currents of similar magnitude; also recorded: elicits the typical TRPV1 outwardly rectifying current

compound-evoked calcium response normalized to the capsaicin (2 μM)-evoked response (rat TRPV1 (rTRPV1) [1]): no activity was detected
Compound: O=C1C[C@@H]2CC[C@H]3C/C(=C/c4ccccc4)C[C@@]23O1 [Compound 23]

compound-evoked calcium response normalized to the capsaicin (2 μM)-evoked response (rat TRPV1 (rTRPV1) [1]): active compounds
Compound: CC1C[C@H]2CCC[C@H]3CC(=O)O[C@@]23C1 (some centres unmarked) [Compound 15]

inhibitory effect on the response of compound 13 (rat TRPV1 (rTRPV1) [5]): had no effect
Compound: O=C1C[C@@H]2CC[C@@H]3CCCC[C@]32O1 [Compound 18]
compound-evoked calcium response normalized to the capsaicin (2 μM)-evoked response (rat TRPV1 (rTRPV1) [1]): most dramatic decrease in the level of activation

Compound: O=C1O[C@@]23CC=CC[C@H]2CC[C@H]3[C@H]1Cc1ccccc1 [Compound 31]
compound-evoked calcium response normalized to the capsaicin (2 μM)-evoked response (rat TRPV1 (rTRPV1) [1]): strongest response; also recorded: capsaicin-like activity

Compound: COc1cc(CNC(=O)CCCC/C=C/C(C)C)ccc1O [capsaicin, reference compound]
current-voltage profile, whole-cell patch clamp (rTRPV1 [4]): robust, outwardly rectifying currents of similar magnitude

inhibition of TRPV1 activation by compound 32 (rTRPV1 [3]; CPZ 20 μM, pre-incubation or application after pre-activation by 32 (100 and 300 μM)): resulted in channel inhibition
Compound: Oc1cc2c(cc1O)CN(C(=S)NCCc1ccc(Cl)cc1)CCC2 [capsazepine, reference compound]

compound-evoked calcium response normalized to the capsaicin (2 μM)-evoked response (rat TRPV1 (rTRPV1) [1]): significant channel activation
time course of the evoked calcium response (rat TRPV1 (rTRPV1) [1]; compound 300 μM, compared to compound 13 or 32): transiently response
Compound: O=C1O[C@@]23CCCC[C@H]2CC[C@H]3[C@H]1Cc1ccccc1 [Compound 34]

Reference: patent US20210163437A1, “DERIVATIVES OF TRICYCLIC SPIROLACTONES AND USES THEREOF IN TREATMENT AND MANAGEMENT OF PAIN” (Yissum Research Development Company of The Hebrew …, priority 2017, published 2021)
